Reference: patent US20230138400A1, “METHODS AND PHARMACEUTICAL COMPOSITIONS FOR REPROGRAMING IMMUNE ENVIRONMENT IN A SUBJECT IN NEED THEREOF” (INSERM (INSTITUT NATIONAL DE LA SANTE ET DE LA RECHERCHE …, priority 2016, published 2023)

What was measured:
[1] = tested on: naive CD4 T cells isolated from the spleen of C57BL/6 mice; assay: Polarization of naive CD4 T cells (Th1, Th2, Treg, Th17 conditions) in presence of DDA, flow cytometry; assay type: cell-based, mouse
Protocol: FIGS. 1A-E. Sorted naive CD4 T cells were isolated from the spleen of C57BL/6 mice and activated in the indicated Th1, Th2, Treg, or Th17 polarizing conditions as described in the “Materials and methods” section”. These cells were cultured in the presence of increasing concentrations of DDA. After 96 hours, the percentage of (A) Th1: CD4+Tbet+IFNg+, (B) Th2: CD4+GATA3+[…], (C) Treg: CD4+Foxp3+IL10+ and (D) Th17: CD4+RORgt+[…], cells was measured by flow cytometry. (E) Sorted naive CD8 T cells were isolated from the spleen of the C57BL/6 mice and activated with anti-CD3, anti-CD28 and recombinant IL2. After 96 hours, the percentage of cytotoxic T CD8+GranzymB+IFNg+ cells was measured by flow cytometry.
FIGS. 2A-E. Sorted naive CD4 T cells isolated from the spleen of C57BL/6 mice were activated in Th1, Th2, Treg, or Th17 polarizing conditions as indicated in the “Materials and methods” section”. After 96 h, increasing concentrations of DDA was added on polarized CD4 T cells for 24 h. Then the percentage of (A) CD4+Tbet+IFNg+, (B) CD4+GATA3+[…], (C) CD4+Foxp3+IL10+ and (D) CD4+RORgt+[…] cells was measured by flow cytometry. (E) Sorted naïve CD8 T cells were isolated from the spleen of the C57BL/6 mice and activated with anti-CD3, anti-CD28 and recombinant IL2. After 96 h, increasing concentrations of DDA was added on activated CD8 T cells for 24 h. Then the percentage of cytotoxic T CD8+GranzymB+IFNg+ cells was measured by flow cytometry.
Cells isolation. Single-cells leukocyte suspensions were obtained from spleens of C57BL/6 mice. Naive CD4 or CD8 T cells are isolated by depletion of memory CD4 or CD8 T cells and non-CD4 or non-CD8 T cells according the manufacturer's protocol from Miltenyi kit (Miltenyi biotec). Purities of CD4+CD44l^ow CD62L^high or CD8+CD44l^ow CD62L^high T cells after isolation were >98%
Immune cell culture. Isolated CD4+ or CD8+ T cells were cultures in 96-well flat bottom plates (0.25×10^6 cells per wells) in 0.25 ml of complete RPMI 1640 media (10% FBS, 1% penicillin/Streptomycin, 1% sodium pyruvate, 1% HEPES and 50 μM b-mercaptoethanol) in the presence of 10 μg/ml plate-bound anti-mouse CD3 (2C11) and 2 μg/ml soluble α-CD28 (LEAF) in addition to 50 ng/ml of recombinant IL-2 (e-bioscience). DDA (synthesized by Affichem) diluted in the solvent vehicle was added at increasing concentration (0-1-10-100 and 1000 nM). Cells were cultured in polarizing Th1 (20 ng/ml of recombinant […] and 10 μg/ml of anti-IL4), Th2 (50 ng/ml of recombinant IL-4, 10 μg/ml of anti-IFNg), Th17 (10 ng/ml of recombinant TGF-b, 100 ng/ml of recombinant IL-6, 10 μg/ml of anti-IFN-g and 10 μg/ml of anti-IL4) or Treg (10 ng/ml of recombinant TGF-b, 10 μg/ml of anti-IFNg and 10 μg/ml of anti-IL4) conditions. All recombinant cytokines were purchased from Peprotech and antibodies were purchased from eBioscience. After 5 days of culture, cells were collected and analyzed by flow cytometry. To investigate the impact of DDA on polarization of CD4 or CD8 naive T cells, DDA or the solvent vehicle was added at the beginning of culture at Day 0 or at Day 4 and cells was analyzed at day 5 by flow cytometry.

[2] = tested on: human and murine mammary tumor cells; assay: Exosome secretion of mammary tumor cells treated with DDA; assay type: cell-based; conditions: data not shown
[3] = tested on: naive CD4 T cells from the spleen of WT or LXRαβKO mice; assay: Polarization of naive CD4 T cells from WT or LXRαβKO mice in presence of DDA; assay type: cell-based, mouse
Protocol: FIGS. 9A-B. Sorted naive CD4 T cells were isolated from the spleen of WT or LXRαβKO mice (collaboration with Hervé Guillou, INRA, Toulouse) and activated in the indicated Th1 or Treg polarizing conditions. These cells were cultured in the presence of increasing concentrations of DDA. After 96 hours, the percentage of (A) Th1: CD4+Tbet+IFNg+ and (B) Treg: CD4+Foxp3+IL10+ cells was measured by flow cytometry and expressed relative to the control.
FIG. 10. Sorted naive CD4 T cells were isolated from the spleen of WT or LXRαβKO mice and activated in Th2 polarizing conditions. These cells were cultured in the presence of increasing concentrations of DDA. After 96 hours, the percentage of Th2: CD4+GATA3+IL4+ cells was measured by flow cytometry and expressed relative to the control.

[4] = tested on: Bone marrow of WT or LXRαβKO mice; assay: Bone marrow dendritic cell differentiation (GM-CSF) from WT or LXRαβKO mice in presence of DDA; assay type: cell-based, mouse
Protocol: FIGS. 11A-B. Bone marrow was isolated from the tibia and femur of WT or LXRαβKO mice and cultivated with 20 ng/ml GM-CSF and in presence of increasing concentrations of DDA. At day 3 and 5 half of medium was replaced by fresh medium containing GM-CSF. After 7 days of culture, the percentage of (A) differentiated CD11c+CD8a dendritic cell (B) mature CD11c+CD8a+ dendritic cells (CD11c+CD8a+CD86hi CCR7hi) was measured by flow cytometry and expressed relative to the control.
FIG. 12. Bone marrow was isolated from the tibia and femur of WT or LXRαβKO mice and cultivated with 20 ng/ml GM-CSF and in presence of increasing concentrations of DDA. At day 3 and 5 half of medium was replaced by fresh medium containing GM-CSF. After 7 days of culture, the mean of florescence (MFI) of MHC class II expressed on the surface of CD11c dendritic cells: CD11c+H2db+ was measured by flow cytometry and expressed relative to the control.

E0771 tumors = assay: Immune cells infiltrated into E0771 tumors (wild type, sh control, sh LXR) after DDA, flow cytometry; assay type: in vivo, mouse
[5] = WT, 7 days of culture (FIG. 11)

In the case of `CC(C)CCCC(C)[C@H]1CCC2C3C[C@@H](NCCc4cnc[nH]4)[C@@]4(O)C[C@@H](O)CC[C@]4(C)C3CC[C@@]21C` (stereo partly shown) [DDA, 5a-hydroxy-6b-[2-(1H-imidazol-4-yl)ethylamino]cholestan-3b-ol], the “concentration from which differentiation of Th0 into Th1 is increased” value ([1]; DDA added at day 0, Th1 polarizing conditions, 96 h, CD4+Tbet+IFNg+) is reported as ≥ 1 nM, the Th2 differentiation ([1]; DDA added at day 0, Th2 polarizing conditions) is reported as “no effect” and the “concentration from which differentiation of Th0 into Th17 is increased” value ([1]; DDA added at day 0, Th17 polarizing conditions, 96 h) is reported as ≥ 100 nM. The Treg differentiation ([1]; DDA added at day 0, Treg polarizing conditions) was “no effect”, the “concentration from which differentiation of Th0 into Th1 is increased” value ([1]; DDA added at day 4 for 24 h) was ≥ 1 nM and the “differentiation into Th2” value ([1]; DDA added at day 4 for 24 h) was “no effect”. For the same compound, the “differentiation into Th17” value ([1]; DDA added at day 4 for 24 h) was “no effect”, the “differentiation of Th0 into Treg” value ([1]; DDA added at day 4 for 24 h (FIG. 2)) was “inhibits” and the “activated phenotype of CD4 T cells (CD44 at their surface)” value ([1]; day 4, data not shown) was “upregulation of CD44”. For the same compound, the “production of exosome secreted into the media” value [2] was “also observed”, the “DDA effect on Th1 differentiation” value ([3]; LXRαβKO mice) was “abrogated” and the “DDA effect on Treg differentiation” value ([3]; LXRαβKO mice) was “abrogated”. For the same compound, the “differentiation of Th0 into Th1” value ([3]; WT mice, Th1 polarizing conditions, 96 h (FIG. 9)) was “increases”, the “differentiation of Th0 into Treg” value ([3]; WT mice, Treg polarizing conditions, 96 h (FIG. 9)) was “decreases” and the Th2 differentiation ([3]; WT or LXRαβKO mice, Th2 polarizing conditions, 96 h (FIG. 10)) was “no impact”. For the same compound, the “MHC II expression at the surface of CD11c dendritic cells” value ([4]; 1 μM DDA, WT (FIG. 12)) was “increases”, the “differentiation of CD11c into CD11c CD8a+ dendritic cells” value [4, 5] was “increases” and the “maturation of CD11c CD8a+ dendritic cells (CD86hi CCR7hi)” value [4, 5] was “increases”. For the same compound, the “effect on MHC II expression at the surface of CD11c dendritic cells” value ([4]; in absence of LXR (LXRαβKO)) was “abrogated”, the “effect on differentiation and maturation of CD11c CD8a+ dendritic cells” value ([4]; in absence of LXR (LXRαβKO)) was “abolished” and the “number of macrophages M2 infiltrated into the tumors” value (E0771 tumors; 0.37 μg/kg DDA (FIG. 18)) was “decreases”. The “number of MDSC infiltrated into the tumor” value (E0771 tumors; 0.37 μg/kg DDA (FIG. 19)) was “decreases”, the “ratio of dendritic cells CD11+ CD8α+ versus MDSC” value (E0771 tumors; 0.37 μg/kg DDA (FIG. 19)) was “increases” and the “LXRβ dependence of effect on macrophages M1” value (E0771 tumors; shLXRβ vs LXRβ expressing tumors (FIG. 18)) was “dependent of the LXRβ”. For the same compound, the “effects on MDSC and dendritic cells/MDSC ratio” value (E0771 tumors; tumors knocked-down for the LXRβ (FIG. 19)) was “abolished”.
